Tests used:
IL-1β = assay: THP-1 AlphaLISA IL-1β cytokine assay (PMA-differentiated THP-1, LPS then nigericin); assay type: cell-based; details: Homo sapiens, 30 min pre-incubation, LPS 24 hr, nigericin 1 hour
Experimental: (§1) Measuring Inhibitory Effects on IL-1β, and IL-6 Cytokine Output from THP-1s
(§2) The cytokine inhibition profiles of compounds of formula (I) were determined in a differentiated THP-1 cell assay. All assays were performed in RPMI-1640 growth medium (Gibco), supplemented with 10% fetal bovine serum (FBS; Gibco), 1% penicillin-streptomycin and 1% sodium pyruvate unless specified otherwise. The IL-1β and IL-6 cytokine inhibition assays were each run in a background of differentiated THP-1 cells as described below. All reagents described were from Sigma-Aldrich unless specified otherwise. Compounds were prepared as 10 mM DMSO stocks.
(§3) THP-1 cells were expanded as a suspension up to 80% confluence in appropriate growth medium. Cells were harvested, suspended, and treated with an appropriate concentration of phorbol 12-myristate 13-acetate (PMA) over a 72 hr period (37° C./5% CO2).
(§4) Following 72 hrs of THP-1 cell incubation, cellular medium was removed and replaced with fresh growth media containing 1% of FBS. Working concentrations of compounds were prepared separately in 10% FBS treated growth medium and pre-incubated with the cells for 30 minutes (37° C./5% CO2). Following the 30 minute compound pre-incubation, THP-1s were treated with an appropriate concentration of LPS and the THP-1s were subsequently incubated for a 24 hr period (37° C./5% CO2). An appropriate final concentration of Nigericin was then dispensed into the THP-1 plates and incubated for 1 hour (37° C./5% CO2) before THP-1 supernatants were harvested and collected in separate polypropylene 96-well holding plates.
(§5) Reagents from each of the IL-1β and IL-6 commercial kits (Perkin Elmer) were prepared and run according to the manufacturer's instructions. Subsequently, fluorescence signal detection in a microplate reader was measured (EnVision® Multilabel Reader, Perkin Elmer).
(§6) Percentage inhibition was calculated per cytokine by normalizing the sample data to the high and low controls used within each plate (+/−LPS respectively).

IL-6 = assay: THP-1 AlphaLISA IL-6 cytokine assay (PMA-differentiated THP-1, LPS then nigericin); assay type: cell-based; details: Homo sapiens; differentiated THP-1 cells; 30 min pre-incubation, LPS 24 hr, nigericin 1 hour
Experimental: as §1, §2, §3, §4, §5, §6

[1] = Hepatocyte stability assay, human; assay type: in vitro ADME; details: 10 μM compound, 0.5×10^6 cells/mL, 60 min; for CIint: Human hepatocytes; for half-life at 10 μM: cryo-preserved hepatocytes, read-out: T½
Description: (§7) Defrosted cryo-preserved hepatocytes (viability >70%) were used to determine the metabolic stability of a compound via calculation of intrinsic clearance (CIint; a measure of the removal of a compound from the liver in the absence of blood flow and cell binding). Clearance data are particularly important for in vitro work as they can be used in combination with in vivo data to predict the half-life and oral bioavailability of a drug.
(§8) The metabolic stability in hepatocytes assay involved a time-dependent reaction using both positive and negative controls. The cells must be pre-incubated at 37° C. then spiked with test compound (and positive control); samples taken at pre-determined time intervals were analysed to monitor the change in concentration of the initial drug compound over 60 minutes. A buffer incubation reaction (with no hepatocytes present) acted as a negative control and two cocktail solutions, containing compounds with known high and low clearance values (verapamil/7-hydroxycoumarin and propranolol/diltiazem), acted as positive controls. • 1. The assay was run with a cell concentration of 0.5×10^6 cells/mL in Leibovitz buffer. • 2. All compounds and controls were run in duplicate. • 3. Compound concentration was 10 μM. • 4. All compounds and controls were incubated with both cells and buffer to show turnover is due to hepatic metabolism. • 5. All wells on the incubation plate had 326.7 μL of either cells or buffer added. • 6. Prior to assay, cell and buffer-only incubation plates were preincubated for 10 mins at 37° C. • 7. The assay was initiated by adding compounds, 3.3 μL of 1 mM in 10% DMSO-90% Buffer; final DMSO concentration is 0.1%. • 8. Samples were taken at regular timepoints (0, 5, 10, 20, 40, 60 min) until 60 mins. • 9. Sample volume was 40 μL and added to 160 μL of crash solvent (acetonitrile with internal standard) and stored on ice. • 10. At the end of the assay, the crash plates were centrifuged at 3500 rpm for 20 mins at 4° C. • 11. 80 μL of clear supernatant was removed and mixed with 80 μL of deionised water before being analysed by LC-MS/MS.
(§9) Raw LC-MS/MS data were exported to, and analysed in, Microsoft Excel for determination of intrinsic clearance. The percentage remaining of a compound was monitored using the peak area of the initial concentration as 100%. Intrinsic clearance and half-life values were calculated using a graph of the natural log of percentage remaining versus the time of reaction in minutes.

NRF2 = NRF2 activation assay (DiscoverX PathHunter NRF2 translocation kit, U2OS cells); assay type: cell-based; details: Homo sapiens; for Emax: U2OS, normalised to dimethyl fumarate high control; for EC50: U2OS PathHunter cells, 6 hours
[2] = Hepatocyte stability assay, mouse; assay type: in vitro ADME; details: 10 μM compound, 0.5×10^6 cells/mL, 60 min; for CIint: Mouse hepatocytes; for half-life at 10 μM: cryo-preserved hepatocytes, read-out: T½
Description: as §7, §8, §9

[3] = THP-1, differentiated THP-1 cells

IC50 (IL-1β; [3])	IC50 (IL-6)	CIint [1]	half-life at 10 μM [1]	EC50 (NRF2; +GSH)	EC50 (NRF2; −GSH)	CIint [2]	half-life at 10 μM [2]	Structure (SMILES)	Emax (NRF2; +GSH)	Emax (NRF2; −GSH)	IC50 (IL-1β; differentiated THP-1 cells)
9.9 µM	13.2 µM	9 μL min^−1 10^−6 cells	139 min	45.7 µM	33.1 µM	162 μL min^−1 10^−6 cells	9 min	C=C(CC(N)=O)C(=O)OC1(c2ccc(C(F)(F)F)cc2)CCC1 [Example 11, 1-(4-(trifluoromethyl)phenyl)cyclobutyl 4-amino-2-methylene-4-oxobutanoate]	100%	117%	
5.2 µM	3.8 µM	31 μL min^−1 10^−6 cells	52 min	39.4 µM	14.7 µM	92 μL min^−1 10^−6 cells	14 min	C=C(CC(=O)NC1CS(=O)(=O)C1)C(=O)OC1(c2ccc(C(F)(F)F)cc2)CCC1 [Example 18, 1-(4-(trifluoromethyl)phenyl)cyclobutyl 4-((1,1-dioxidothietan-3-yl)amino)-2-methylene-4-oxobutanoate]	70%	90%	
5.2 µM	3.9 µM	40 μL min^−1 10^−6 cells	38 min	49.4 µM	14.6 µM	108 μL min^−1 10^−6 cells	12 min	C=C(CC(=O)NC1CCN(C)CC1)C(=O)OC1(c2ccc(C(F)(F)F)cc2)CCC1 [Example 14, 1-(4-(trifluoromethyl)phenyl)cyclobutyl 2-methylene-4-((1-methylpiperidin-4-yl)amino)-4-oxobutanoate]	95%	80%	
2.5 µM	3.8 µM	32 μL min^−1 10^−6 cells	48 min	50.7 µM	40.2 µM	161 μL min^−1 10^−6 cells	13 min	C=C(CC(=O)NCCO)C(=O)OC1(c2ccc(C(F)(F)F)cc2)CCC1 [Example 19, 1-(4-(trifluoromethyl)phenyl)cyclobutyl 4-((2-hydroxyethyl)amino)-2-methylene-4-oxobutanoate]	102%	210%	
7.2 µM	3.9 µM	37 μL min^−1 10^−6 cells	42 min	55 µM	38 µM	100 μL min^−1 10^−6 cells	21 min	C=C(CC(=O)NCC(N)=O)C(=O)OC1(c2ccc(C(F)(F)F)cc2)CCC1 [Example 21, 1-(4-(trifluoromethyl)phenyl)cyclobutyl 4-((2-amino-2-oxoethyl)amino)-2-methylene-4-oxobutanoate]	86%	184%	
5.3 µM	7.3 µM	92 μL min^−1 10^−6 cells	14 min	51.3 µM	26.3 µM	508 μL min^−1 10^−6 cells	3 min	C=C(CC(=O)NCc1ncc[nH]1)C(=O)OC1(c2ccc(C(F)(F)F)cc2)CCC1 [Example 15, 1-(4-(trifluoromethyl)phenyl)cyclobutyl 4-(((1H-imidazol-2-yl)methyl)amino)-2-methylene-4-oxobutanoate]	86%	131%	
7.6 µM	10.8 µM	>460 μL min^−1 10^−6 cells	< 3 min	> 100 µM	51 µM	>460 μL min^−1 10^−6 cells	< 3 min	C=C(CC(=O)OC)C(=O)OC1(c2ccc(C(F)(F)F)cc2)CCC1 [Example 8, 4-methyl 1-(1-(4-(trifluoromethyl)phenyl)cyclobutyl) 2-methylenesuccinate]	38%	51%	

Structure (SMILES)	IC50 (IL-1β; [3])	IC50 (IL-6)	CIint [1]	half-life at 10 μM [1]	EC50 (NRF2; +GSH)	EC50 (NRF2; −GSH)	CIint [2]	half-life at 10 μM [2]	Emax (NRF2; +GSH)	Emax (NRF2; −GSH)	IC50 (IL-1β; differentiated THP-1 cells)
C=C(CC(=O)OCC(=O)O)C(=O)OC1(c2ccc(C(F)(F)F)cc2)CCC1 [Example 22, 2-((3-((1-(4-(trifluoromethyl)phenyl)cyclobutoxy)carbonyl)but-3-enoyl)oxy)acetic acid]		> 31.6 µM	7 μL min^−1 10^−6 cells	204 min	41.1 µM	40 µM	392 μL min^−1 10^−6 cells	4 min	45%	100%	15.2 µM
C=C(CC(=O)O)C(=O)OC1(c2ccc(C(F)(F)F)cc2)CCC1 [Example 2, 3-((1-(4-(trifluoromethyl)phenyl)cyclobutoxy)carbonyl)but-3-enoic acid]	4.4 µM	> 100 µM	9 μL min^−1 10^−6 cells	126 min	> 100 µM	> 100 µM	<3 μL min^−1 10^−6 cells	> 460 min	14%	26%	
C/C(=C\C(=O)O)C(=O)OC1(c2ccc(C(F)(F)F)cc2)CCC1 [Example 23, 3-methyl-4-oxo-4-(1-(4-(trifluoromethyl)phenyl)cyclobutoxy)but-2-enoic acid]	4 µM	> 100 µM	<3 μL min^−1 10^−6 cells	> 460 min	> 100 µM	2.8 µM	<3 μL min^−1 10^−6 cells	> 460 min	4%	39%	

— patent US20240360067A1, “DERIVATIVES OF ITACONIC ACID AND THEIR USE AS ANTI-INFLAMMATORY AGENTS” (Sitryx Therapeutics Limited, priority 2021, published 2024)
